According to patent publication US20230365577A1, “Photodynamic Therapy and Diagnosis” (RMW CHO Group Limited, priority 2020, published 2023):
Counter-ions that a name gives are not always drawn. Like-named read-outs stand apart in the source and are kept apart here.

Legend:
[1] = Singlet oxygen (1O2) production rate; format: physicochemical
Source text: The production of singlet oxygen (^1O2), cellular phototoxicity and light-independent cytotoxicity (“dark toxicity”) of a number of phyllochlorin analogues were compared against chlorin e4 disodium and Talaporfin sodium (mono-L-aspartyl chlorin e6), the active ingredient of Laserphyrin™.

[2] = system: SKOV3 ovarian cancer cells; assay: Phototoxicity in SKOV3 cells (652 nm laser, AlamarBlue viability); format: cell-based, Human
Protocol: (§1) Human ovarian cancer cell line SKOV3 (ATCC #HTB-77) was maintained in Dulbecco's Modified Eagle Medium/Nutrient Mixture F-12 (DMEM/F-12), supplemented with 10% v/v Fetal Bovine Serum, 100 U/mL penicillin and 100 µg/mL streptomycin. Monolayer cultures were grown in a humidified incubator at 37° C. with 5% CO2.
(§2) For in vitro experiments, photosensitizers (stock solution 5.5 mM in 100% DMSO) were diluted in cell culture media (Dulbecco's Modified Eagle Medium/Nutrient Mixture F-12) supplemented with 10% v/v Fetal Bovine Serum, 100 U/mL penicillin, 100 µg/mL streptomycin and 10% w/v Kollidon-12. Once cells had reached ˜80% confluence, spent media was replaced with media containing photosensitizer and cells were incubated for the desired period of time to allow photosensitizer uptake.
(§3) SKOV3 cells were seeded in 96-well black wall plates (Greiner #655090) at a cell density of 5000 cells in 100 μl culture medium per well. On reaching ˜60% confluence, so media was aspirated and replaced with fresh media containing the relevant phyllochlorin analogue from 0-100 μM in DMSO. Cells were incubated for a further 24 hours, allowing uptake of phyllochlorin analogues.
To test for phototoxicity, cells incubated with phyllochlorin analogues (0-10 μM in DMSO) had culture media replaced after 24 hours (as above) and were then exposed to a 652 nm laser (Invion) with laser density at 50 mW/cm^2 for 5 mins (total 15 J/cm^2). Following activation, cells were cultured for a further 24 hours. Media was then replaced with fresh media containing AlamarBlue, and % viable cells remaining assessed as above. Controls included cells treated with phyllochlorin analogues but not activated by laser light; cells without phyllochlorin analogue treatment but with laser light; and untreated controls. All measurements were made in quadruplicate.
(§4) For comparative purposes, phyllochlorin analogues were tested and compared against both chlorin e4 disodium and Talaporfin sodium, a clinically approved photosensitizer used in the photodynamic treatment of lung cancers. Phototoxicity IC90 values and dark toxicity IC10 values were calculated using a log[inhibitor]-vs normalized response dose curve with variable slope, using the formula Y=100/(1+(IC90/X)^HillSlope (phototoxicity IC90) or Y=100/(1+(IC10/X)^HillSlope (dark toxicity IC10).

[3] = system: SKOV3 ovarian cancer cells; assay: Inherent cytotoxicity (dark toxicity) in SKOV3 cells (AlamarBlue viability); format: cell-based, Human
Protocol: as §1, §2
as §3, with “confluence,” for “confluence, so”
To test for inherent cytotoxicity (i.e. “dark toxicity”) of the phyllochlorin analogue the culture media was replaced after 24 hours with fresh media containing 10% (v/v) AlamarBlue Cell Viability Reagent (ThermoFisher) and cells incubated at 37° C. for 6 hours. Untreated cells were used as a control. Fluorescence (Ex 555 nm/Em 596 nm) was measured using a Cytation 3 Multimode Plate Reader (Biotek), and cytotoxicity assessed according to the % viable cells remaining. All measurements were made in quadruplicate.
as §4

[4] = SKOV3, 24 h uptake, 652 nm laser 50 mW/cm2 5 mins (15 J/cm2), viability 24 h later, read-out: Cellular Toxicity: Phototoxicity IC90
[5] = Homo sapiens, SK-OV-3, light or radiation study, SKOV3, 24 h uptake, 652 nm laser 50 mW/cm2 5 mins (15 J/cm2), viability 24 h later, read-out: Cellular Toxicity: Phototoxicity IC90
[6] = Homo sapiens, SK-OV-3, light or radiation study, SKOV3, read-out: Phototoxicity apparent IC90
[7] = Homo sapiens, SK-OV-3, light or radiation study, read-out: Cellular Toxicity: Phototoxicity IC90, SKOV3, 24 h uptake, 652 nm laser 50 mW/cm2 5 mins (15 J/cm2), viability 24 h later

| Singlet Oxygen Production (slope) 1O2 [1] | Compound | Cellular Toxicity: Dark toxicity IC10 ([3]; human, 24 h) [nM] | IC90 [2, 5] [nM] | other results |
| --- | --- | --- | --- | --- |
| 423.4 | 3-((7S,8S)-18-ethyl-2,5,8,12,17-pentamethyl-13-vinyl-7H,8H-porphyrin-7-yl)-N-(2-(2-hydroxyethoxy)ethyl)-N-methylpropanamide zinc complex [Compound 21] |  |  | Fold decrease in the rate of ROS production on Zn2+ complexation ([1]; compound 21 versus compound 18): ~2.5 fold; IC90 [2, 4]: 4770 nM; Cellular Toxicity: Dark toxicity IC10 [3]: 8170 nM |
| 404.7 | 3-((7S,8S)-18-ethyl-2,5,8,12,17-pentamethyl-13-vinyl-7H,8H-porphyrin-7-yl)-N-methyl-N-(3-(((2S,3R,4S,5S,6R)-3,4,5-trihydroxy-6-(hydroxymethyl)tetrahydro-2H-pyran-2-yl)thio)propyl)propanamide zinc complex [Compound 19] |  |  | IC90 [2, 4]: 12800 nM; Cellular Toxicity: Dark toxicity IC10 [3]: 20200 nM |
|  | C=Cc1c(C)c2cc3nc(c(C)c4cc(C)c(cc5nc(cc1[nH]2)C(C)=C5CC)[nH]4)[C@@H](CCC(=O)O)[C@@H]3C [Compound 1a, phyllochlorin potassium salt] | 12410 |  | Singlet Oxygen Production (slope) 1O2 ([1]; potassium salt): 760.9; IC90 ([2]; SKOV3, 24 h uptake, 652 nm laser 50 mW/cm2 5 mins (15 J/cm2), viability 24 h later, potassium salt, read-out: Cellular Toxicity: Phototoxicity IC90): 470 nM |
|  | C=Cc1c(C)c2cc3nc(c(C)c4cc(C)c(cc5nc(cc1[nH]2)C(C)=C5CC)[nH]4)[C@@H](CCC(=O)O)[C@@H]3C [Compound 1b, phyllochlorin lithium salt] | 22130 |  | Singlet Oxygen Production (slope) 1O2 ([1]; lithium salt): 841.7; IC90 ([2]; SKOV3, 24 h uptake, 652 nm laser 50 mW/cm2 5 mins (15 J/cm2), viability 24 h later, lithium salt, read-out: Cellular Toxicity: Phototoxicity IC90): 1400 nM |
| 2191.0 | C=Cc1c(C)c2cc3nc(c(C)c4cc(C)c(cc5nc(cc1[nH]2)C(C)=C5CC)[nH]4)[C@@H](CCC(=O)N(C)CCOCCOCCO)[C@@H]3C [Compound 4, 3-((7S,8S)-18-ethyl-2,5,8,12,17-pentamethyl-13-vinyl-7H,8H-porphyrin-7-yl)-N-(2-(2-(2-hydroxyethoxy)ethoxy)ethyl)-N-methylpropanamide] | 16410 | 120 |  |
| 2385.0 | C=Cc1c(C)c2cc3nc(c(C)c4cc(C)c(cc5nc(cc1[nH]2)C(C)=C5CC)[nH]4)[C@@H](CCC(=O)N(C)CCCO)[C@@H]3C [Compound 5, 3-((7S,8S)-18-ethyl-2,5,8,12,17-pentamethyl-13-vinyl-7H,8H-porphyrin-7-yl)-N-(3-hydroxypropyl)-N-methylpropanamide] | 20820 | 50 | Rate of ROS production relative to chlorin e4 disodium and Talaporfin sodium [1]: more than double; IC90 [2, 6]: < 100 nM |
| 1494.0 | C=Cc1c(C)c2cc3nc(c(C)c4cc(C)c(cc5nc(cc1[nH]2)C(C)=C5CC)[nH]4)[C@@H](CCC(=O)N(C)CCCCCO)[C@@H]3C [Compound 7, 3-((7S,8S)-18-ethyl-2,5,8,12,17-pentamethyl-13-vinyl-7H,8H-porphyrin-7-yl)-N-(5-hydroxypentyl)-N-methylpropanamide] | 14270 | 50 | IC90 [2, 6]: < 100 nM |
| 1314.0 | C=Cc1c(C)c2cc3nc(c(C)c4cc(C)c(cc5nc(cc1[nH]2)C(C)=C5CC)[nH]4)[C@@H](CCC(=O)N(C)CCCCCS[C@@H]1O[C@H](CO)[C@@H](O)[C@H](O)[C@H]1O)[C@@H]3C [Compound 8, 3-((7S,8S)-18-ethyl-2,5,8,12,17-pentamethyl-13-vinyl-7H,8H-porphyrin-7-yl)-N-methyl-N-(5-(((2S,3R,4S,5S,6R)-3,4,5-trihydroxy-6-(hydroxymethyl)tetrahydro-2H-pyran-2-yl)thio)pentyl)propanamide] | 12550 | 60 | IC90 [2, 6]: < 100 nM; Fold increase in cellular phototoxicity compared to compound 2 ([2]; SKOV3, IC90): approximately 4 fold |
| 1691.0 | C=Cc1c(C)c2cc3nc(c(C)c4cc(C)c(cc5nc(cc1[nH]2)C(C)=C5CC)[nH]4)[C@@H](CCC(=O)N(C)CCO)[C@@H]3C [Compound 10, 3-((7S,8S)-18-ethyl-2,5,8,12,17-pentamethyl-13-vinyl-7H,8H-porphyrin-7-yl)-N-(2-hydroxyethyl)-N-methylpropanamide] | 14940 | 160 |  |

| Compound | Singlet Oxygen Production (slope) 1O2 [1] | Cellular Toxicity: Dark toxicity IC10 ([3]; human, 24 h) [nM] | IC90 [2, 5] [nM] | other results |
| --- | --- | --- | --- | --- |
| C=Cc1c(C)c2cc3nc(c(C)c4cc(C)c(cc5nc(cc1[nH]2)C(C)=C5CC)[nH]4)[C@@H](CCC(=O)O)[C@@H]3C [Compound 1d, phyllochlorin arginine salt] | 833.9 | 18150 |  | IC90 ([2]; read-out: Cellular Toxicity: Phototoxicity IC90, SKOV3, 24 h uptake, 652 nm laser 50 mW/cm2 5 mins (15 J/cm2), viability 24 h later): 1420 nM |
| C=Cc1c(C)c2cc3nc(c(C)c4cc(C)c(cc5nc(cc1[nH]2)C(C)=C5CC)[nH]4)[C@@H](CCC(=O)O)[C@@H]3C [Compound 1e, phyllochlorin meglumine salt] | 938.8 | 20730 |  | IC90 [2, 4]: 1790 nM |
| C=Cc1c(C)c2cc3nc(c(C)c4cc(C)c(cc5nc(cc1[nH]2)C(C)=C5CC)[nH]4)[C@@H](CCC(=O)N(C)CCC[S+]([O-])[C@@H]1O[C@H](CO)[C@@H](O)[C@H](O)[C@H]1O)[C@@H]3C (stereo partly drawn) [Compound 9, 3-((7S,8S)-18-ethyl-2,5,8,12,17-pentamethyl-13-vinyl-7H,8H-porphyrin-7-yl)-N-methyl-N-(3-(((2S,3R,4S,5S,6R)-3,4,5-trihydroxy-6-(hydroxymethyl)tetrahydro-2H-pyran-2-yl)thio)propyl)propanamide sulphoxide] | 1396.0 | 70240 |  | IC90 [2, 7]: 190 nM |
| C=Cc1c(C)c2cc3nc(c(C)c4cc(C)c(cc5nc(cc1[nH]2)C(C)=C5CC)[nH]4)[C@@H](CCC(=O)N(C)CCCS[C@@H]1O[C@H](COC(C)=O)[C@@H](OC(C)=O)[C@H](OC(C)=O)[C@H]1OC(C)=O)[C@@H]3C [Compound 11, (2R,3R,4S,5R,6S)-2-(acetoxymethyl)-6-((3-(3-((7S,8S)-18-ethyl-2,5,8,12,17-pentamethyl-13-vinyl-7H,8H-porphyrin-7-yl)-N-methylpropanamido)propyl)thio)tetrahydro-2H-pyran-3,4,5-triyl triacetate] | 1434.0 | 29000 |  | IC90 [2, 7]: 500 nM |
| C=Cc1c(C)c2cc3nc(c(C)c4cc(C)c(cc5nc(cc1[nH]2)C(C)=C5CC)[nH]4)[C@@H](CCC(=O)N(C)CCCS[C@@H]1O[C@H](COC(=O)[C@@H](N)C(C)C)[C@@H](O)[C@H](O)[C@H]1O)[C@@H]3C [Compound 12, ((2R,3S,4S,5R,6S)-6-((3-(3-((7S,8S)-18-ethyl-2,5,8,12,17-pentamethyl-13-vinyl-7H,8H-porphyrin-7-yl)-N-methylpropanamido)propyl)thio)-3,4,5-trihydroxytetrahydro-2H-pyran-2-yl)methyl L-valinate hydrochloride] | 1121.0 | 28360 |  | IC90 [2, 7]: 180 nM |
| C=Cc1c(C)c2cc3nc(c(C)c4cc(C)c(cc5nc(cc1[nH]2)C(C)=C5CC)[nH]4)[C@@H](CCC(=O)N[C@H]1C(O)O[C@H](CO)[C@@H](O)[C@@H]1O)[C@@H]3C (stereo partly drawn) [Compound 13, phyllochlorin 2-deoxyglucosamine-propylamide] | 1423.0 | 13020 |  | IC90 [2, 7]: 120 nM |
